In data set [1] the target is T1, Aldo-keto reductase family 1 member C1 (Homo sapiens, UniProt Q04828).
T1 sequence (Q04828 whole entry): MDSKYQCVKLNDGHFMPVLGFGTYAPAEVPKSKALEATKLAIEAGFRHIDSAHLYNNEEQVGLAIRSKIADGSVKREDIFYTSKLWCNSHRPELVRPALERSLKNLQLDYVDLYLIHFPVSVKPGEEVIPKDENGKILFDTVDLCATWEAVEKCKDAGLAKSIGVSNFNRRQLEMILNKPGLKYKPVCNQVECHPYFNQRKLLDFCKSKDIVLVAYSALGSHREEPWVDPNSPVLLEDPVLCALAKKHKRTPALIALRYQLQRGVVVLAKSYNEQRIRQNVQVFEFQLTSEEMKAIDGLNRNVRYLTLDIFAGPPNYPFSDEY
The experiment in a line: Inhibition of recombinant human AKR1C1 expressed in Escherichia coli BL21 […] at 100 uM using S-tetralol as substrate in presence of NADP+ by UV-spectrophotometric method relative to control.

Data set [2] deals with T2, AKR1C2 (Homo sapiens, UniProt P52895).
T2 sequence (P52895 whole entry): T1 sequence (Q04828 whole entry) with T38V, R47H, L54V, C87S, V151M, R170H, Q172L
The experiment in a line: in vitro. As to conditions: probe S-tetralol; call rule not given here.

Data set [3] deals with T3, AKR1C1 (Homo sapiens, UniProt Q04828).
T3 sequence (Q04828 whole entry): T1 sequence (Q04828 whole entry)
Kind of data set: in vitro. The settings on record: probe S-tetralol.
Description: Inhibition of recombinant human AKR1C1 expressed in Escherichia coli BL21 (D3) at 200 uM using S-tetralol as substrate in presence of NADP+ by UV-spectrophotometric method relative to control

Data set [4] deals with T4, Aldo-keto reductase family 1 member C3 (Homo sapiens, UniProt P42330).
T4 sequence (P42330 whole entry): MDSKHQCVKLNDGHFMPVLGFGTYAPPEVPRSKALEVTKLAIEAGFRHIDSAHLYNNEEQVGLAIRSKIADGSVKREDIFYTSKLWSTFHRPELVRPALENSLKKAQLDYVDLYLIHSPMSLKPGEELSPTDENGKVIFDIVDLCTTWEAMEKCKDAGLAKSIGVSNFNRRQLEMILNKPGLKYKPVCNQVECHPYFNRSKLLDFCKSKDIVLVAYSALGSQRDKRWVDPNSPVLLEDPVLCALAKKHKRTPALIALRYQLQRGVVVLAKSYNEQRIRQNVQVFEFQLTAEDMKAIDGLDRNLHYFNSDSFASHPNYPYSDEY
Description: Inhibition of recombinant full-length human N-terminal His6-tagged AKR1C3 expressed in Escherichia coli BL21 (DE3) using phenanthrenequinone as substrate in presence of NADPH generating system

Where a chain is given by its changes, count along the chain named.

Experimental findings from ChEMBL document CHEMBL4339191 (J Med Chem, 2019) are described below.

Turning to `CC(C)=CCc1cc(/C=C/C(=O)O)cc(C(=O)NCc2ccc(N(C)C)cc2)c1`, the “inhibition (INH)” value in data set [1] is listed as “Not Active”. What is called inhibition is the change of the read-out against control, counted positive when it falls. Lower therefore signals a weak effect. The molecule `CC(C)=CCc1cc(/C=C/C(=O)O)cc(C(=O)NCc2ccc(C)cc2)c1` gave an inhibition at 200 µM in data set [2] of 66.5%.

In data set [3], `CC(C)=CCc1cc(/C=C/C(=O)O)cc(C(=O)NCc2cccc(OC(F)(F)F)c2)c1` returned an inhibition at 200 µM of 10.6%. For `COc1ccc(CNC(=O)c2cc(/C=C/C(=O)O)cc(CC=C(C)C)c2)cc1`, the “inhibition (INH)” value in data set [1] is “Not Active”.

As a reminder, the Ki is the dissociation constant of the complex between target and ligand, obtained from inhibition or displacement. A high value points to weaker binding. With `CC/C=C\C[C@H]1C(=O)CC[C@@H]1CC(=O)O` [JASMONIC ACID], the affinity in data set [4] corresponds to a Ki of 24 µM.
